Results published in patent publication US9585929B2 (ZHEJIANG KANGLAITE GROUP CO., LTD., priority 2014, dated 2017).
In brackets after ≈: the same amount, converted by molar mass. Where a name gives a salt, the structure may show the parent alone. Marks after values point to notes of the source that are not given here. One block for each compound: values may come before it.

Legend:
[1] = tested on: QGY human hepatoma; experiment: Xenograft model of QGY human hepatoma inoculated subcutaneously in nude mice
Method: (§11) A549 Human lung cancer cells cryopreserved in liquid nitrogen were recovered, and incubated in a 37 incubator under 5% CO2. After being subcultured, cells in a logarithmic growth stage were distributed with normal saline to be a cell suspension in a concentration of 1-2×10^7 cells/ml. The cell suspension was inoculated into BALB/C nude mice (SPF grade, 18-20 g, 6 weeks old, male) subcutaneously at right axillary. The tumor tissues were aseptically taken from the 2nd generation of xenograft model of A549 human lung cancer in a vigorous growth stage and cut into small uniform pieces in the size of 1-2 mm^3. The right axillary of each nude mouse was inoculated one piece subcutaneously via a trocar. When the inoculated tumor could be touched, the mice were randomly grouped and administered according to the experimental design program. All contacted feed, padding, cages and equipment, etc., should be autoclaved prior to use. The nude mice were fed in a laminar flow rack. Tumor sizes and animal weights were observed and tested dynamically. Mice in each group were sacrificed 3 weeks later or so, and tumors were surgically removed and weighed. The inhibition rate on tumor was calculated according to the following formula: Inhibition rate %=[(Mean tumor weight of the control group−mean tumor weight of the treatment group)/mean tumor weight of the control group]×100%;
(§12) Q value of antitumor effect in drug combination was calculated according to Jin's formula: Q=Ea+b/(Ea+Eb−Ea×Eb) Wherein Ea+b=the tumor inhibition rate of drug combination, Ea or Eb=the tumor inhibition rate of drug A or drug B, respectively. If Q value=0.85-1.15, an additive effect (+) was shown; if Q value>1.15, a synergistic effect (++) was shown.

[2] = tested on: A549 human lung cancer; experiment: Xenograft model of A549 human lung cancer inoculated subcutaneously in nude mice; assay type: in vivo, BALB/C nude mice
Method: as §11, §12

[3] = tested on: S180 sarcoma; experiment: S180 sarcoma model in mice; assay type: in vivo, Kunmin mice
Method: The injection of the invention (10 g/100 ml), Cyclophosphamide (CTX), Mitoxantrone (DHAD), Mitomycin (MMC) and normal saline
Ascitic fluid of mice having well-grown […] sarcoma was diluted with normal saline (1:4) to obtain a cell suspension of about 1-2×10^7 cells/ml. Each mouse was inoculated with 0.2 ml of the suspension subcutaneously at the right axilla, and the mice were grouped randomly. The administration began from the next day according to the dosage program in Table 7. On the tenth day after the inoculation of S180, animals were sacrificed via cervical dislocation and dissected to take out the tumor block. Weights of tumor were compared and inhibition rates were calculated for each group.

[4] = tested on: Bcap-37 human breast cancer; experiment: Bcap-37 human breast cancer model in nude mice; assay type: in vivo, BALB/C nude mice; settings: Docetaxel 25 mg/kg ip × 1
Method: The injection of the invention (10 g/100 ml), Docetaxel injection (Taxotere, 20 mg/vial) and normal saline
Bcap-37 human breast cancer: inoculated in BALB/C nude mice (SPF grade), 18-20 g, female
(§1) Tumor blocks of well-grown Bcap-37 human breast cancer were homogenized in normal saline to obtain cell suspensions in the concentration of 1-2×10^7 cells/ml. Each nude mouse was inoculated with 0.2 ml of the suspension at the right axilla subcutaneously, and the mice were grouped randomly. The administration began from the 7th day after the inoculation. 20 Days after the inoculation, the mice were sacrificed. Tumor blocks were taken out and weighed. Differences of tumor weight between each experimental group and the control group were compared, and tumor inhibition rates and Q values were calculated.

[5] = tested on: SMMC-7721 human hepatoma; experiment: Xenograft model of SMMC-7721 human hepatoma inoculated subcutaneously in nude mice; assay type: in vivo
Method: A549 Human lung cancer cells cryopreserved in liquid nitrogen were recovered, and incubated in a 37 incubator under 5% CO2. After being subcultured, cells in a logarithmic growth stage were distributed with normal saline to be a cell suspension in a concentration of 1-2×10^7 cells/ml. The cell suspension was inoculated into BALB/C nude mice (SPF grade, 18-20 g, 6 weeks old, male) subcutaneously at right axillary. The tumor tissues were aseptically taken from the 2nd generation of xenograft model of A549 human lung cancer in a vigorous growth stage and cut into small uniform pieces in the size of 1-2 mm^3. The right axillary of each nude mouse was inoculated one piece subcutaneously via a trocar. When the inoculated tumor could be touched, the mice were randomly grouped and administered according to the experimental design program. […] The nude mice were fed in a laminar flow rack. Tumor sizes and animal weights were observed and tested dynamically. Mice in each group were sacrificed 3 weeks later or so, and tumors were surgically removed and weighed. The inhibition rate on tumor was calculated according to the following formula: Inhibition rate %=[(Mean tumor weight of the control group−mean tumor weight of the treatment group)/mean tumor weight of the control group]×100%;
as §12

[6] = tested on: PANC-1 human pancreatic cancer; experiment: PANC-1 human pancreatic cancer model in nude mice; assay type: in vivo, BALB/C nude mice; settings: Gemcitabine 60 mg/kg iv × 1
Method: as §12
PANC-1 human pancreatic cancer cells: inoculated in BALB/C nude mice, 16-18 g, female
Tumor blocks of well-grown PANC-1 human pancreatic cancer were inoculated subcutaneously in 4-week-old female BALB/C nude mice. The nude mice were grouped randomly and administered. One week after the end of the administration, the mice were sacrificed and dissected. Tumor blocks were taken out and weighed. Differences of tumor weight between each experimental group and the control group were compared and the tumor inhibition rates were calculated.

[7] = tested on: FC-3M human prostate cancer; experiment: FC-3M human prostate cancer model in nude mice; assay type: in vivo, BALB/C nude mice
Method: The injection of the invention (10 g/100 ml), Leuprolide acetate (Lupron) and normal saline
Tumor blocks of well-grown FC-3M human prostate cancer were homogenized in normal saline (1:4). Each nude mouse was inoculated with 0.2 ml of the suspension at the right axilla subcutaneously, and the mice were grouped randomly. The administration began from the next day. 21 Days after the inoculation, the mice were sacrificed. Tumor blocks were taken out and weighed. Differences of tumor weight between each experimental group and the control group were compared and the tumor inhibition rates were calculated.

[8] = tested on: H460 (human lung cancer cells); experiment: MTT inhibition of tumor cell growth in vitro; assay type: cell-based; settings: NCI-H460
Method: (§2) The inhibition effects of samples on the above-mentioned cell lines were detected by using MTT method. The specific procedures were as follows:
(§3) (1) Cell culture: (a) Storaged cells were taken out from the liquid nitrogen, thawed quickly in a 37 water bath, then aseptically transferred into 6 ml of cellular medium in a 10 ml centrifugal tube, centrifuged at 1000 rpm for 5 min. The supernatant was discarded, then the precipitated cells were re-suspensed in 5-6 ml cellular media by pipetting and transferred into a flask in a 37 incubator for cell culture; (b) Next day, the flask was taken out from the incubator and the used medium was discarded, then the cells were incubated in 5-6 ml fresh medium in the 37 incubator; (c) On the third day, the flask was taken out from the incubator and the used medium was discarded, then 2-3 ml of PBS (pH7.4) was added into the flask with rocking for cleaning it and the used PBS was discarded. Such a cellular cleaning step was repeated once again. 3-5 drops of 0.25% trypsin solution were added into the flask with sloshing, thus well-distributed in it. The flask was capped and placed in a 37 incubator for about 3 min, and the separation of cells from the flask wall was observed under the microscope. 2 ml of cellular medium was added and cells were separated completely from the flask wall by pipetting, then the cell suspension was transferred into 2 separate clean flasks, each containing 5-6 ml medium. The cell suspension was well-distributed by pipetting, then the flask was placed in a 37 incubator. (d) Step (c) was repeated every other day. In the whole cultivation process, adherent cells were not allowed to grow too dense and suspension cells were always maintained at a logarithmic growth stage.
(§4) This solution was diluted in a gradient dilution with PBS to obtain a set of sample solutions in the concentration of 10 mg/ml, 5000 μg/ml, 2500 μg/ml, 1250 μg/ml, 625 μg/ml and 312.5 μg/ml, respectively.
(§5) (3) Each diluted sample solution was added into duplicated wells of a 96 well flat-bottom microplate (10 μl/well). The correspondingly diluted DMSO solutions, as controls, were added into the wells of the microplate.
(§6) (4) Cells in a logarithmic growth stage were trypsinized and washed, then re-suspended in the medium containing 10% calf serum. The number of living cells was counted in Trypan blue dye exclusion method and cell suspensions were adjusted into a density of 2×10^5 cell/ml.
(§7) (5) The cell-contained 96 well flat-bottom microplate was placed in a 37 incubator and cells were incubated under 5% CO2 for 48 h.
(§8) (6) 20 μl of 5 mg/ml MTT solution was added into each well and cells were incubated continuously in the incubator for 3-4 h.
(§9) (7) 100 μl of crystal dissolving solution was added into each well and cells were incubated continuously in the incubator overnight, so as to dissolve the resulted formazan crystals sufficiently. Then, the absorbance value was measured at 570 nm for each well.
(§10) (8) Based on absorbance values, inhibition rates on the cell growth were calculated for sample groups of various concentrations. The calculation formula was as follows: (1−mean absorbance of experimental wells/mean absorbance of control wells)×100%

[9] = tested on: SKOV3 (human ovarian cancer cells); experiment: MTT inhibition of tumor cell growth in vitro; assay type: cell-based; settings: SK-OV-3
Method: as §2, §3, §4, §5, §6, §7, §8, §9, §10

[10] = tested on: HepG-2 (human hepatic cancer cells); experiment: MTT inhibition of tumor cell growth in vitro; assay type: cell-based; settings: HepG2
Method: as §2, §3, §4, §5, §6, §7, §8, §9, §10

[11] = tested on: A549 (human lung cancer cells); experiment: MTT inhibition of tumor cell growth in vitro; assay type: cell-based
Method: as §2, §3, §4, §5, §6, §7, §8, §9, §10

[12] = tested on: SMMC-7721 (human hepatic cancer cells); experiment: MTT inhibition of tumor cell growth in vitro; assay type: cell-based
Method: as §2, §3, §4, §5, §6, §7, §8, §9, §10

[13] = tested on: PANC-1 (human pancreatic cancer cells); experiment: MTT inhibition of tumor cell growth in vitro; assay type: cell-based
Method: as §2, §3, §4, §5, §6, §7, §8, §9, §10

[14] = tested on: MCF-7 (human breast cancer cells); experiment: MTT inhibition of tumor cell growth in vitro; assay type: cell-based; settings: MCF7
Method: as §2, §3, §4, §5, §6, §7, §8, §9, §10

[15] = tested on: Bcap-37 (human breast cancer cells); experiment: MTT inhibition of tumor cell growth in vitro; assay type: cell-based; settings: Bcap37
Method: as §2, §3, §4, §5, §6, §7, §8, §9, §10

[16] = tested on: MDA-MB-435 human breast cancer; experiment: MDA-MB-435 human breast cancer model in nude mice; assay type: in vivo, BALB/C nude mice; settings: Paclitaxel 50 mg/kg ip × 1
Method: as §1, with “Each” for “Tumor blocks of well-grown Bcap-37 human breast cancer were homogenized in normal saline to obtain cell suspensions in the concentration of 1-2×10^7 cells/ml. Each”, “18” for “20”

[17] = tested on: W256 cancer sarcoma; experiment: W256 cancer sarcoma model in rats; assay type: in vivo, Wistar rats
Method: The injection of the invention (10 g/100 ml), Cyclophosphamide (CTX) and normal saline
W256 cancer sarcoma: inoculated in Wistar rats, 50-60 g, female
Ascitic fluid of rats with well-grown W256 cancer sarcoma was diluted with normal saline to obtain a cell suspension of about 1-2×10^7 cells/ml. Each rat was inoculated with 0.2 ml of the suspension at the right axilla subcutaneously. The rats were grouped randomly next day and began administration. Two weeks later, animals were sacrificed and dissected to take out the tumor block. Weights of tumor were compared between each experimental group and the control group and tumor inhibition rates were calculated.

[18] = tested on: LM-3 human hepatoma; experiment: Xenograft model of LM-3 human hepatoma inoculated subcutaneously in nude mice
Method: The injection of the invention (10 g/100 ml), cyclophosphamide (Jiangsu Hengrui Medicine Co., Ltd), blank fat emulsion and normal saline

[19] = Gemcitabine 25 mg/kg iv × 3 q 3 d
[20] = Gemcitabine 50 mg/kg iv × 3 q 3 d
[21] = cyclophosphamide 15 mg/kg ip × 7 qd
[22] = cyclophosphamide 30 mg/kg ip × 7 qd

- Weight of animal start ([1]; Adriamycin 1 mg/kg ip × 7 qd): 21.3 g
SMILES: COc1cccc2c1C(=O)c1c(O)c3c(c(O)c1C2=O)C[C@@](O)(C(=O)CO)C[C@@H]3O[C@H]1C[C@H](N)[C@H](O)[C@H](C)O1 [Adriamycin]
- Inhibition rate ([1]; Adriamycin 1 mg/kg ip × 7 qd): 38.41%
- Weight of tumor x ± SD ([1]; Adriamycin 1 mg/kg ip × 7 qd): 0.712 ± 0.18 g
- Inhibition rate ([1]; Adriamycin 2 mg/kg ip × 7 qd): 70.76%
- Weight of tumor x ± SD ([1]; Adriamycin 2 mg/kg ip × 7 qd): 0.338 ± 0.17 g

SMILES: N.N.[Cl][Pt][Cl] [Cisplatin]
- Inhibition rate ([2]; Cisplatin 1 mg/kg ip × 7 qd): 42.13%
- Weight of animal end ([2]; Cisplatin 1 mg/kg ip × 7 qd): 24.0 g
- Weight of animal start ([2]; Cisplatin 1 mg/kg ip × 7 qd): 20.2 g
- Weight of tumor x ± SD ([2]; Cisplatin 1 mg/kg ip × 7 qd): 0.765 ± 0.11 g
- Inhibition rate ([2]; Cisplatin 2 mg/kg ip × 7 qd): 86.31%
- Weight of animal end ([2]; Cisplatin 2 mg/kg ip × 7 qd): 23.1 g
- Weight of tumor x ± SD ([2]; Cisplatin 2 mg/kg ip × 7 qd): 0.181 ± 0.06 g

SMILES: O=C1c2c(O)ccc(O)c2C(=O)c2c(NCCNCCO)ccc(NCCNCCO)c21 [DHAD, Mitoxantrone]
- Inhibition rate ([3]; DHAD 2 mg/kg ip × 2(1, 3)): 50.63** %
- Weight of tumor x ± SD ([3]; DHAD 2 mg/kg ip × 2(1, 3)): 0.78 ± 0.20 g

SMILES: CC(=O)O[C@@]12CO[C@@H]1C[C@H](O)[C@@]1(C)C(=O)[C@H](O)C3=C(C)[C@@H](OC(=O)[C@H](O)[C@@H](NC(=O)OC(C)(C)C)c4ccccc4)C[C@@](O)([C@@H](OC(=O)c4ccccc4)[C@H]21)C3(C)C [Docetaxel]
- Inhibition rate [4]: 56.80%
- Weight of tumor x ± SD [4]: 1.27 ± 0.88 g

- Weight of animal end [5, 19]: 25.1 g
- Weight of animal start [5, 19]: 20.1 g
- Weight of animal end [5, 20]: 24.2 g
SMILES: Nc1ccn([C@@H]2O[C@H](CO)[C@@H](O)C2(F)F)c(=O)n1 [Gemcitabine, gemcitabine hydrochloride]
- Inhibition rate [5, 19]: 49.14%
- Weight of tumor x ± SD [5, 19]: 0.886 ± 0.24 g
- Inhibition rate [5, 20]: 87.66%
- Weight of tumor x ± SD [5, 20]: 0.215 ± 0.11 g
- Inhibition rate [6]: 24.61%
- Weight of tumor x ± SD [6]: 0.1443 ± 0.081 g

SMILES: CCNC(=O)[C@@H]1CCCN1C(=O)[C@H](CCCNC(=N)N)NC(=O)[C@H](CC(C)C)NC(=O)[C@@H](CC(C)C)NC(=O)[C@H](Cc1ccc(O)cc1)NC(=O)[C@H](CO)NC(=O)[C@H](Cc1c[nH]c2ccccc12)NC(=O)[C@H](Cc1c[nH]cn1)NC(=O)[C@@H]1CCC(=O)N1 [Lupron, Leuprolide acetate]
- Inhibition rate ([7]; Lupron 0.75 ml/kg iv × 1): 36.36** %
- Weight of tumor x ± SD ([7]; Lupron 0.75 ml/kg iv × 1): 0.98 ± 0.23 g
- Inhibition rate ([7]; Lupron 1.5 ml/kg iv × 1): 50.65** %
- Weight of tumor x ± SD ([7]; Lupron 1.5 ml/kg iv × 1): 0.76 ± 0.14 g

SMILES: CO[C@@]12[C@H](COC(N)=O)C3=C(C(=O)C(C)=C(N)C3=O)N1C[C@@H]1N[C@@H]12 [MMC, Mitomycin]
- Inhibition rate ([3]; MMC 1.5 mg/kg ip × 2(1, 3)): 38.61* %
- Weight of tumor x ± SD ([3]; MMC 1.5 mg/kg ip × 2(1, 3)): 0.97 ± 0.19 g

- IC50 [8]: 0.49 µg/mL (≈ 0.574 µM)
- IC50 [9]: 0.22 µg/mL (≈ 0.258 µM)
- IC50 [10]: 0.45 µg/mL (≈ 0.527 µM)
- IC50 [11]: 0.46 µg/mL (≈ 0.539 µM)
- IC50 [12]: 0.41 µg/mL (≈ 0.48 µM)
- IC50 [13]: 0.44 µg/mL (≈ 0.515 µM)
- IC50 [14]: 0.18 µg/mL (≈ 0.211 µM)
- IC50 [15]: 0.28 µg/mL (≈ 0.328 µM)
SMILES: CC(=O)O[C@H]1C(=O)[C@@]2(C)[C@H]([C@H](OC(=O)c3ccccc3)[C@]3(O)C[C@H](OC(=O)[C@H](O)[C@@H](NC(=O)c4ccccc4)c4ccccc4)C(C)=C1C3(C)C)[C@]1(OC(C)=O)CO[C@@H]1C[C@@H]2O [Taxol, paclitaxel]
- Inhibition rate [16]: 62.87%

SMILES: O=P1(N(CCCl)CCCl)NCCCO1 (stereo not drawn) [cyclophosphamide, Cyclophosphamide]
- Inhibition rate ([17]; CTX 10 mg/kg iv × 2(3, 5)): 37.83* %
- Weight of tumor x ± SD ([17]; CTX 10 mg/kg iv × 2(3, 5)): 2.12 ± 1.22 g
- Inhibition rate ([17]; CTX 30 mg/kg iv × 7): 87.68** %
- Weight of tumor x ± SD ([17]; CTX 30 mg/kg iv × 7): 0.42 ± 0.85 g
- Inhibition rate ([3]; CTX 30 mg/kg ip × 2(1, 3)): 41.77* %
- Weight of tumor x ± SD ([3]; CTX 30 mg/kg ip × 2(1, 3)): 0.92 ± 0.21 g
- Inhibition rate [18, 21]: 27.82%
- Weight of animal end [18, 21]: 24.8 g
- Weight of animal start [18, 21]: 20.7 g
- Weight of tumor x ± SD [18, 21]: 1.108 ± 0.09 g
- Inhibition rate [18, 22]: 82.74%
- Weight of animal end [18, 22]: 25.0 g
- Weight of animal start [18, 22]: 20.5 g
- Weight of tumor x ± SD [18, 22]: 0.265 ± 0.12 g
